We go through one molecule from patent US5780254A, “Method for detection of herbicides” (Sandoz Ltd, priority 1996, dated 1998).

Molecules are shown by their SMILES.

In test [1] the test system is Arabidopsis seeds. Briefly: Arabidopsis reversal assay with antidote compounds. Format: in vivo. As to conditions: for Growth, % of Control: probe compound at 1.5× lethal concentration. The protocol: The solutions are filter sterilized prior to addition. FIG. 4 represents a typical set up in a reversion assay for discovering inhibitors of AMP biosynthesis.
The left side (columns 1-3) of the 24-well microtiter plate is designed for controls, and the right side (columns 4-6) are designated for one probe compound. […] Rows B,C and D are supplemented with three doses of an antidote for the control and probe compound. […] The three doses are 50,100 and 150 μl respectively.
Forty ml of Arabidopsis growth media as described in Example 1 is sterilized and allowed to cool to about 45° C. A probe compound (at 1.5× lethal concentration) is added to columns 4 through 6 (right half of the plate). Media is distributed at 1.0 ml per well to all wells. Sterile seeds are added to each well as described above. As in Example 1, the plate is incubated and growth is scored.

A further test addresses T1, ADSS from E. coli (Escherichia coli, UniProt P0A7D4).
T1 construct: endogenous in cells; host or cells: E. coli
Briefly: ADSS enzyme assay, E. coli ADSS. Format: biochemical. Conditions: E. coli ADSS (FIG. 6). The protocol:
(§1) ADSS is obtained from 4-5 day old, etiolated seedlings of Zea mays. Seedlings are homogenized in a Waring blender with an equal volume (grams of tissue=mls of buffer) of extraction buffer containing 50 mM EPPS, pH 7.5, 5 mM MgCl2, 0.1 mM EDTA, 5 mM sodium bisulfite, 5 mM DTT, 0.1 mM phenylmethanesulfonyl fluoride and 10% glycerol. The extract is expressed through Miracloth (Calbiochem, La Jolla, Calif.) sandwiched between layers of cheesecloth. To precipitate phenolics and nucleic acids, 0.2 to 0.4% w/v protamine sulfate is added to the extract. The extract is stirred for 30 minutes, and then centrifuged at 45,000×G for 60 minutes. The resulting supernatant is fractionated with ammonium sulfate. Proteins are retained which precipitate at concentrations of ammonium sulfate greater than 45% saturation, but less than 55% saturation. Similar methods are used to isolate ADSS from wheat germ, E. coli and rat liver. ADSS activity is further purified by subjecting the preparation to DEAE cellulose chromatography. The column is equilibrated with chromatography buffer consisting of 50 mM EPPS, pH 7.5, 10% glycerol, 0.1 mM EDTA, 5 mM MgCl2 and 1 mM DTT. After loading the enzyme preparation, the column is washed with two bed volumes of the chromatography buffer, then eluted with a linear, 10-bed-volume gradient of 0 to 0.4M KCl dissolved in the same buffer. The peak of ADSS activity elutes at a KCl concentration of about 150 mM. Fractions containing activity are pooled and the proteins concentrated by ultrafiltration. At this stage, the enzyme is suitable for high capacity screening tests that are designed to discover inhibitory compounds. Alternatively, hydrophobic interaction chromatography can be used instead of DEAE-cellulose. This material is optionally further purified by passage through a column of Sephadex G-75 equilibrated with the chromatography buffer described above. The peak of ADSS activity elutes at a retention volume corresponding to a molecular weight of approximately 50,000 Da.
(§2) ADSS is assayed by anion exchange HPLC and by a continuous spectrophotometric assay. For the former, enzyme is diluted appropriately with 50 mM EPPS, pH 8.3, 10% ethylene glycol, 10 mM potassium phosphate and 1 mM MgCl2 to a volume of 92 μL. […] The column eluate is monitored at 270 nm using a Perkin-Elmer LC 480 diode array detector. Integrated peaks are quantified from standard curves. Identity of the products of the ADSS reaction, GDP and adenylosuccinate, are determined by comparing their retention times and spectra with those of authentic standards, purchased from Sigma Chemical Co.
(§3) For the spectrophotometric assay, reaction mixtures are the same as above, except that the volume is doubled. […] This method of quantification was validated using the HPLC method.

In another test the target is T2, ADSS from rat liver (Rattus norvegicus, UniProt D4AEP0).
T2 construct: from tissue; host or cells: rat liver
T2 sequence (D4AEP0 1-456): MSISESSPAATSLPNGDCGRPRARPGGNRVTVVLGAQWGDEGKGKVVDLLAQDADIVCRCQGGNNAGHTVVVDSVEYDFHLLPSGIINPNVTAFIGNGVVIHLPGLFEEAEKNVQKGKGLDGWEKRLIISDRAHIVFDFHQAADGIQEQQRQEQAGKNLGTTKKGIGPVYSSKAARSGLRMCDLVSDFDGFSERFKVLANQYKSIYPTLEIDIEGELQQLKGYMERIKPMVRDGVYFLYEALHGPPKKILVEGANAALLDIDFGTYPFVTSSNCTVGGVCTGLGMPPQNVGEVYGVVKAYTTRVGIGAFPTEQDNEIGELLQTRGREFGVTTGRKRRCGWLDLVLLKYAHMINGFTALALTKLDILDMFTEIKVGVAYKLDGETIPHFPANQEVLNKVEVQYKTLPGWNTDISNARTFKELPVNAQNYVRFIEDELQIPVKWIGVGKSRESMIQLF
Briefly: ADSS enzyme assay, rat liver ADSS. Type of test: biochemical. Conditions: rat liver ADSS (FIG. 6). The procedure: as §1, §2, §3

For test [2], the system named is adenylosuccinate lyase (ASL). Briefly: Assay of adenylosuccinate lyase (ASL). Format: biochemical, Zea mays. As to conditions: 1 mM concentration (data not shown). The procedure: ASL is obtained from three day old, etiolated seedlings of Zea mays (maize). Seedlings are homogenized in a Waring blender with an equal volume (grams of tissue=mls of buffer) of 20 mM potassium phosphate buffer (KP buffer) containing 1 mM DTT. The slurry is then filtered through a cheese cloth and the filtrate subjected to 100,000×g centrifugation for 60 minutes. The clear supernatant is used for assaying ASL activity.
A typical reaction mixture in 1 mL contains 100-300 μL of ASL and 0.15 mM adenylosuccinate (30 μL of a 5 mM solution in KP buffer), the rest being KP buffer. Disappearance of absorbance at 280 nm is followed as a function of time to determine the rate of ASL activity. Inhibitors when needed are included to a final concentration of 1 mM in the assay mixture to observe the effect on the ASL activity. Compounds hydantocidin, N-acetylhydantocidin, NAP-H and hadacidin had no effect on the rate of ASL activity at 1 mM concentration (data not shown).

Another test has as its system glutamine synthetase. Conditions: background statement; cited from earlier work.
The conditions of test [3]: background statement; cited from earlier work.
In test [4] the test system is Arabidopsis seeds. Kind of test: Arabidopsis bioassay, determination of the lethal concentration (LC 90). Conditions: Arabidopsis thaliana, 168 h, read-out: lethal concentration (LC 90).

T1 sequence (P0A7D4 2-432): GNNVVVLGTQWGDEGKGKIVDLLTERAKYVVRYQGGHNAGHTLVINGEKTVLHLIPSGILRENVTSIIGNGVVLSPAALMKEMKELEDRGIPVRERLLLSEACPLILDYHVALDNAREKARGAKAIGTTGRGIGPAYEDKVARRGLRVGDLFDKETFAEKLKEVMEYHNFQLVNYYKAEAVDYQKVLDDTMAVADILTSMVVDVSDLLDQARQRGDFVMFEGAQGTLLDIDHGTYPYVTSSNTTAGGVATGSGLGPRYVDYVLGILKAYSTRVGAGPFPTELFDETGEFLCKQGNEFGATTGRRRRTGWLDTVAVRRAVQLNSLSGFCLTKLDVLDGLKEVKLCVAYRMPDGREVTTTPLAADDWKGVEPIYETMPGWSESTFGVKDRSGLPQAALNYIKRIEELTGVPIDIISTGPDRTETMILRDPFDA

As to `O=C1NC(=O)C2(N1)O[C@H](CO)[C@@H](O)[C@H]2O` (single isomer, unassigned) [hydantocidin, Hydantocidin], the “Growth, % of Control” value is on record as 0% in the test with Arabidopsis seeds [1] (No antidote, 0 mM); 100% in the test on Arabidopsis seeds [1] (antidote ADP 0.5-5.0 mM); 100% in the test on Arabidopsis seeds [1] (antidote AMP 0.5-5.0 mM); 40% in the test on Arabidopsis seeds [1] (antidote ATP 0.5-5.0 mM); 60% with Arabidopsis seeds [1] (antidote Adenine 0.5-5.0 mM); 80-100% in the test with Arabidopsis seeds [1] (antidote Adenosine 0.5-5.0 mM). The “Growth, % of Control” value is reported as 80% in the test on Arabidopsis seeds [1] (antidote Adenosine + Guanosine 0.5-5.0 mM); 0% with Arabidopsis seeds [1] (antidote Cytidine + Uridine 0.5-5.0 mM); 0% in the test on Arabidopsis seeds [1] (antidote Guanine 0.5-5.0 mM); 0% in the test on Arabidopsis seeds [1] (antidote Guanosine 0.5-5.0 mM); 0% in the test on Arabidopsis seeds [1] (antidote Hypoxanthine 0.5-5.0 mM); 5% in the test with Arabidopsis seeds [1] (antidote IMP 0.5-5.0 mM). Further, the “reversal of growth inhibition (in words)” value with Arabidopsis seeds [1] (antidote IMP, doses 50, 100 and 150 μl) is reported as “did not reverse growth inhibition”; with Arabidopsis seeds [1] (antidotes adenosine and AMP, rows B and C, wells 4 through 6) it was “Complete growth is observed”. Also, the “reversal of inhibition at the lethal concentration (in words)” value in the test on Arabidopsis seeds [1] (in the presence of AMP, ADP or adenine) is given as “completely reversed”. Besides, the “growth without the antidote (in words)” value in the test on Arabidopsis seeds [1] (probe compound alone, no antidote) is “Growth is not observed”. Also, the “inhibition of ADSS (in words)” value against ADSS from E. coli and against ADSS from rat liver was “neither the E. coli nor the rat liver ADSS are inhibited” each time. Further, the “effect on the rate of ASL activity” value in test [2] is reported as “no effect”. Moreover, the “inhibition of glutamine synthetase (in words)” value in the test with glutamine synthetase is given as “not inhibited”. Further, the “reversal of growth inhibition by aromatic amino acids (in words)” value in test [3] was “not reversed”. Also, in the test on Arabidopsis seeds [4], the IC90 was approximately 2000 nM.
